In patent publication US20090274676A1, “COMBINATION OF DEHYDROEPIANDROSTERONE OR DEHYDROEPIANDROSTERONE-SULFATE WITH A PDE-4 INHIBITOR FOR TREATMENT OF ASTHMA OR CHRONIC OBSTRUCTIVE PULMONARY DISEASE” (priority 2003, published 2009):
Where “and” joins values, the source holds several entries; their conditions need not be identical. Identical values can stand only once. Marks after values point to notes of the source that are not given here.

Columns and labels:
[1] = Respirable dose studies, Andersen cascade impactor; type: physicochemical; conditions: 90 L/min
Experimental: The respirable dose (respirable fraction) studies were performed using a standard sampler cascade impactor (Andersen), consisting of an inlet cone (an impactor pre-separator was substituted here), 9 stages, 8 collection plates, and a backup filter within 8 aluminum stages held together by 3 spring clamps and gasket O-ring seals, where each impactor stage contains multiple precision drilled orifices. When air is drawn through the sampler, multiple jets of air in each stage direct any airborne particles toward the surface of the collection plate for that stage. The size of the jets is constant for each stage, but is smaller in each succeeding stage. Whether a particle is impacted on any given stage depends upon its aerodynamic diameter. The range of particle sizes collected on each stage depends upon on the jet velocity of the stage, and the cut-off point of the previous stage. Any particle not collected on the first stage follows the air stream around the edge of the plate to the next stage, where it is either impacted or passed on to the succeeding stage, and so on, until the velocity of the jet is sufficient for impaction. To prevent particle bounce during the cascade impactor test, the individual impactor plates were coated with a hexane-grease (high vacuum) solution (100:1 ratio). As noted above, the particle size cut-off points on the impactor plates changed at different airflow rates. […] The set-up recommended by the United States Pharmacopeia for testing dry powder inhalers consists of a mouthpiece adapter (silicone in this case) attached to a glass throat (modified 50 ml round-bottom flask) and a glass distal pharynx (induction port) leading top the pre-separator and Andersen sampler. The pre-separator sample includes washings from the mouthpiece adaptor, glass throat, distal glass pharynx and pre-separator. 5 ml acetonitrile:water (1:1 ratio) solvent was placed in the pre-separator before performing the cascade impactor experiment, that were performed in duplicate with 3 different dry powder inhaler devices and at 3 airflow rates, 30, 60 and 90 L/min. The drug collected on the cascade impactor plates were assayed by the HPLC, and a drug mass balance was performed for each Diskhaler and multi-dose cascade impactor experiment consisting of determining the amount of drug left in the blister, the amount of drug remaining in the device (Diskhaler only), the non-respirable amount of the dose retained on the silicone rubber mouth piece adaptor, glass throat, glass distal pharynx and pre-separator, all combined into one sample, and the respirable dose, i.e. Stage 2 through filter impactor plates for airflow rates of 30 and 60 L/min and Stages 1 through filter impactor plates for 90 L/min experiments.
The cascade impactor experiments were conducted as described in Example 3. Four cascade impactor experiments were done, three with a IDL multi-dose device and one with a Diskhaler, all at 90 L/min. […] However, the % respirable dose was still low. This was likely the result of moisture absorption of the anhydrous form.

[2] = Solid-state stability with and without lactose at 50° C. (HPLC, DHEA formation); type: physicochemical
Source text: These conditions were used to stress the formulation in order to predict its long-term stability results. […] The primary degradant is DHEA. […] The materials on accelerated storage become more cohesive with time as evidenced by clumping during sample weighing for chemical analysis. […] This is a considerable disadvantage since lactose is the most commonly used inhalation excipient for dry powder formulations. Continuing with the virtually anhydrous form would mean limiting formulations to neat powder or undertaking more comprehensive safety studies to use a novel excipient.

[3] = Multi-dose, oven dried drug for 80 minutes
[4] = Multi-dose, oven dried drug for 20 hours

C[C@]12CC[C@H](OS(=O)(=O)[O-])CC1=CC[C@@H]1[C@@H]2CC[C@]2(C)C(=O)CC[C@@H]12.[Na+] [Anhydrous DHEA-S]
Respirable dose of spray-dried compared to micronized anhydrous DHEA-S [1]: two-fold increase | Blister (%) [1, 3]: 2.8% | Preseparator (%) [1, 3]: 78.7% | Respirable Dose (%) [1, 3]: 4.6% | Device (%) ([1]; Multi-dose, oven dried drug for 80 minutes, obtained by difference): 13.9*^a % | Blister (%) [1, 4]: 5.0% | Preseparator (%) [1, 4]: 55.9% | Respirable Dose (%) [1, 4]: 1.2% | Device (%) ([1]; Multi-dose, oven dried drug for 20 hours, obtained by difference): 37.9*^a % | Blister (%) ([1]; jet-milled drug, Diskhaler): 6.6% and 10.1% | Device (%) ([1]; jet-milled drug, Diskhaler): 22.1% and 13.3% | Preseparator (%) ([1]; jet-milled drug, Diskhaler): 72.7% and 60.2% | Respirable Dose (%) ([1]; jet-milled drug, Diskhaler): 2.9% and 2.4% | Blister (%) ([1]; jet-milled drug, Multi-dose): 3.8% and 3.9% | Preseparator (%) ([1]; jet-milled drug, Multi-dose): 73.3% and 65.8% | Respirable Dose (%) ([1]; jet-milled drug, Multi-dose): 3.6% and 3.8% | Device (%) ([1]; jet-milled drug, Multi-dose, obtained by difference): 19.3*^a % and 26.5*^a % | Blisters (%) ([1]; spray-dried drug, Diskhaler): 29.0% | Device (%) ([1]; spray-dried drug, Diskhaler): 11.2% | Preseparator (%) ([1]; spray-dried drug, Diskhaler): 56.8% | Respirable Dose (%) ([1]; spray-dried drug, Diskhaler): 5.6% | DHEA % formed ([2]; 50° C., 1 week): 9.817% | DHEA % formed ([2]; 50° C., 2 weeks): 14.954% | DHEA % formed ([2]; 50° C., 4 weeks): 20.171% | DHEA % formed ([2]; Control, initial (Time=0)): 2.774% | DHEA % formed ([2]; Control, sealed, 25° C., 1 week): 2.694% | DHEA % formed ([2]; Control, sealed, 25° C., 2 weeks): 2.370% | DHEA % formed ([2]; Control, sealed, 25° C., 4 weeks): 2.666%
